Laboratory results reported in patent US11564928B1, “Cannabinoid receptor type 2 (CB2) modulators and uses thereof” (Teon Therapeutics, Inc., priority 2020, dated 2023).

target: human CB2 receptor (Homo sapiens (Human), UniProt P34972); assay: CB2 receptor binding assay ([3H]CP-55,940 displacement, HEK-293 membranes); details: not given
Protocol: The compounds were evaluated in CB1R and CB2R binding assays using membranes from HEK-293 cells transfected with cDNAs encoding the human recombinant CB1R (Bmax=[…] protein) and human recombinant CB2R (Bmax=[…] protein) (Perkin-Elmer). […] Compounds were tested following the procedure described by the cell membrane manufacturer. […] CB2R binding assays were carried out with two different buffers: incubation buffer (Tris-HCl, 50 mM; MgCl2, 5 mM; CaCl2 1 mM; BSA, 0.2% at pH 7.4) and washing buffer (Tris-HCl, 50 mM; NaCl 500 mM; BSA, 0.1% at pH 7.4). […] Assays were performed in duplicate and incubated for […] at 37° C. […] Data are analyzed and IC50 is calculated using GraphPad Prism 5 and the model “log(inhibitor) vs. response—Variable slope”. The binding affinity of the compounds is Determined by Using the Cheng and Prusoff Equation Ki=IC50/(1+[radioligand]/Kd).

Chain of human CB2 receptor (P34972 whole entry): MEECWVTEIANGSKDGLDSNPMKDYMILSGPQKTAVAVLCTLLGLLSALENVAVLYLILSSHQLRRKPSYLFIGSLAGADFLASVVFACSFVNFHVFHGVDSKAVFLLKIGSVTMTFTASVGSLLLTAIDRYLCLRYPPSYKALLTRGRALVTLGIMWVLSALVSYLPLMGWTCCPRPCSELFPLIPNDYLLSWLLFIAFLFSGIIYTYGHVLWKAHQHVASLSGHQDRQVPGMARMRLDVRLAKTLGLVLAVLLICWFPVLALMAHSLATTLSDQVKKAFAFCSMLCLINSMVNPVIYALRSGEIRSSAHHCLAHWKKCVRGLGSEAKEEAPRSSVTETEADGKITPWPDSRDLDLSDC

Structure (SMILES) | IC50
O=C(NC1CC2(CCC2)C1)c1c(O)c2cc(Br)cnc2n(CCN2CCOCC2)c1=O [Compound 4, 6-bromo-4-hydroxy-1-(2-morpholinoethyl)-2-oxo-N-(spiro[3.3]heptan-2-yl)-1,2-dihydro-1,8-naphthyridine-3-carboxamide] | 100 to 999 nM
O=C(NC1CC2(CCC2)C1)c1cc2cc(-c3ccc(OC(F)F)cn3)cnc2n(Cc2ccc(F)cc2)c1=O [Compound 43, 6-(5-(difluoromethoxy)pyridin-2-yl)-1-(4-fluorobenzyl)-2-oxo-N-(spiro[3.3]heptan-2-yl)-1,2-dihydro-1,8-naphthyridine-3-carboxamide] | 100 to 999 nM

same assay, conditions: membranes of HEK-293 cells with human recombinant CB2R, [3H]CP-55,940; class symbols; read-out: CB2 IC50

Structure (SMILES) | IC50
O=C(NC1CC2(CCC2)C1)c1c(O)c2cc(-c3ccccc3)cnc2n(CCN2CCOCC2)c1=O [Compound 14, 4-hydroxy-1-(2-morpholinoethyl)-2-oxo-6-phenyl-N-(spiro[3.3]heptan-2-yl)-1,2-dihydro-1,8-naphthyridine-3-carboxamide] | < 100 nM
C[C@H](NC(=O)c1cc2cc(-c3ccc(OC(F)F)cn3)cnc2n(CCN2CCOCC2)c1=O)c1ccc(F)cc1 [Compound 49, (S)-6-(5-(difluoromethoxy)pyridin-2-yl)-N-(1-(4-fluorophenyl)ethyl)-1-(2-morpholinoethyl)-2-oxo-1,2-dihydro-1,8-naphthyridine-3-carboxamide] | 100 to 999 nM
O=C(NC12CC(C1)C2)c1c(O)c2cc(-c3ccc(F)cc3)cnc2n(CCN2CC3CC(C2)O3)c1=O [Compound 165, 1-(2-(6-oxa-3-azabicyclo[3.1.1]heptan-3-yl)ethyl)-N-(bicyclo[1.1.1]pentan-1-yl)-6-(4-fluorophenyl)-4-hydroxy-2-oxo-1,2-dihydro-1,8-naphthyridine-3-carboxamide] | > 1000 nM
O=C(NC12CC(C1)C2)c1c(O)c2cc(-c3ccc(F)cc3)cnc2n(CCN2C3COCC2C3)c1=O [Compound 166, 1-(2-(3-oxa-6-azabicyclo[3.1.1]heptan-6-yl)ethyl)-N-(bicyclo[1.1.1]pentan-1-yl)-6-(4-fluorophenyl)-4-hydroxy-2-oxo-1,2-dihydro-1,8-naphthyridine-3-carboxamide] | > 1000 nM
COc1c(C(=O)NC23CC(C2)C3)c(=O)n(CCN2CCOCC2)c2ncc(-c3ccc(F)cc3)cc12 [Compound 173, N-(bicyclo[1.1.1]pentan-1-yl)-6-(4-fluorophenyl)-4-methoxy-1-(2-morpholinoethyl)-2-oxo-1,2-dihydro-1,8-naphthyridine-3-carboxamide] | > 1000 nM
COc1ccc(-c2cnc3c(c2)c(OC)c(C(=O)NC24CC(C2)C4)c(=O)n3CCN2CCOCC2)cc1 [Compound 177, N-(bicyclo[1.1.1]pentan-1-yl)-4-methoxy-6-(4-methoxyphenyl)-1-(2-morpholinoethyl)-2-oxo-1,2-dihydro-1,8-naphthyridine-3-carboxamide] | > 1000 nM
COc1ccc(-c2cnc3c(c2)c(OC(C)C)c(C(=O)NC24CC(C2)C4)c(=O)n3CCN2CCOCC2)cc1 [Compound 180, N-(bicyclo[1.1.1]pentan-1-yl)-4-isopropoxy-6-(4-methoxyphenyl)-1-(2-morpholinoethyl)-2-oxo-1,2-dihydro-1,8-naphthyridine-3-carboxamide] | > 1000 nM
